# Test results taken from PubChem BioAssay (NCI).
#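 Following 48 hours of exposure in 96-well plates, responses at five concentrations were used to interpolate endpoints linearly. GI50 = concentration required for 50% inhibition of growth. The concentration for full growth arrest is given as TGI.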
# Columns and labels:
# Assay in all cases: growth of human tumour cells (NCI), 48 h
# 786-0 renal = test system: 786-0 renal
# A498 renal = test system: A498 renal
# A549 NSCLC = test system: A549 NSCLC
# ACHN renal = test system: ACHN renal
# BT-549 breast = test system: BT-549 breast
# CAKI-1 renal = test system: CAKI-1 renal
# CCRF-CEM leukemia = test system: CCRF-CEM leukemia
# COLO 205 colon = test system: COLO 205 colon
# DU-145 prostate = test system: DU-145 prostate
# EKVX NSCLC = test system: EKVX NSCLC
# HCC-2998 colon = test system: HCC-2998 colon
# HCT-116 colon = test system: HCT-116 colon
# HCT-15 colon = test system: HCT-15 colon
# HL-60(TB) leukemia = test system: HL-60(TB) leukemia
# HOP-62 NSCLC = test system: HOP-62 NSCLC
# HOP-92 NSCLC = test system: HOP-92 NSCLC
# HS 578T breast = test system: HS 578T breast
# HT29 colon = test system: HT29 colon
# IGROV1 ovarian = test system: IGROV1 ovarian
# K-562 leukemia = test system: K-562 leukemia
# KM12 colon = test system: KM12 colon
# LOX IMVI melanoma = test system: LOX IMVI melanoma
# M14 melanoma = test system: M14 melanoma
# MALME-3M melanoma = test system: MALME-3M melanoma
# MCF7 breast = test system: MCF7 breast
# MDA-MB-231 breast = test system: MDA-MB-231 breast
# MDA-MB-435 = test system: MDA-MB-435
# MOLT-4 leukemia = test system: MOLT-4 leukemia
# NCI-H226 lung = test system: NCI-H226 lung
# NCI-H23 lung = test system: NCI-H23 lung
# NCI-H460 lung = test system: NCI-H460 lung
# NCI-H522 lung = test system: NCI-H522 lung
# NCI/ADR-RES ovarian = test system: NCI/ADR-RES ovarian
# OVCAR-3 ovarian = test system: OVCAR-3 ovarian
# OVCAR-4 ovarian = test system: OVCAR-4 ovarian
# OVCAR-5 ovarian = test system: OVCAR-5 ovarian
# OVCAR-8 ovarian = test system: OVCAR-8 ovarian
# PC-3 prostate = test system: PC-3 prostate
# RPMI-8226 leukemia = test system: RPMI-8226 leukemia
# RXF 393 renal = test system: RXF 393 renal
# SF-268 CNS = test system: SF-268 CNS
# SF-295 CNS = test system: SF-295 CNS
# SF-539 CNS = test system: SF-539 CNS
# SK-MEL-2 melanoma = test system: SK-MEL-2 melanoma
# SK-MEL-28 melanoma = test system: SK-MEL-28 melanoma
# SK-MEL-5 melanoma = test system: SK-MEL-5 melanoma
# SK-OV-3 ovarian = test system: SK-OV-3 ovarian
# SN12C renal = test system: SN12C renal
# SNB-19 CNS = test system: SNB-19 CNS
# SNB-75 CNS = test system: SNB-75 CNS
# SR leukemia = test system: SR leukemia
# SW-620 colon = test system: SW-620 colon
# T-47D breast = test system: T-47D breast
# TK-10 renal = test system: TK-10 renal
# U251 CNS = test system: U251 CNS
# UACC-257 melanoma = test system: UACC-257 melanoma
# UACC-62 melanoma = test system: UACC-62 melanoma
# UO-31 renal = test system: UO-31 renal
compound,measurement,setting,value
O=C(Nc1cccc(-c2nc(-c3ccc(NC(=O)c4cccnc4)cc3Cl)no2)c1)Nc1ccc(NC(=O)C2CC2)c(C(F)(F)F)c1,GI50,786-0 renal,994 nM
same,TGI,786-0 renal,3110 nM
same,GI50,A498 renal,161 nM
same,TGI,A498 renal,1890 nM
same,GI50,A549 NSCLC,429 nM
same,TGI,A549 NSCLC,4760 nM
same,GI50,ACHN renal,2070 nM
same,TGI,ACHN renal,13200 nM
same,GI50,BT-549 breast,1070 nM
same,TGI,BT-549 breast,3020 nM
same,GI50,CAKI-1 renal,437 nM
same,TGI,CAKI-1 renal,1800 nM
same,GI50,CCRF-CEM leukemia,270 nM
same,TGI,CCRF-CEM leukemia,1900 nM
same,GI50,COLO 205 colon,380 nM
same,TGI,COLO 205 colon,1610 nM
same,GI50,DU-145 prostate,435 nM
same,TGI,DU-145 prostate,4210 nM
same,GI50,EKVX NSCLC,997 nM
same,TGI,EKVX NSCLC,5110 nM
same,GI50,HCC-2998 colon,689 nM
same,TGI,HCC-2998 colon,2060 nM
same,GI50,HCT-116 colon,303 nM
same,TGI,HCT-116 colon,1280 nM
same,GI50,HCT-15 colon,784 nM
same,TGI,HCT-15 colon,5620 nM
same,GI50,HL-60(TB) leukemia,259 nM
same,TGI,HL-60(TB) leukemia,997 nM
same,GI50,HOP-62 NSCLC,361 nM
same,TGI,HOP-62 NSCLC,1800 nM
same,GI50,HOP-92 NSCLC,522 nM
same,TGI,HOP-92 NSCLC,1330 nM
same,GI50,HS 578T breast,324 nM
same,TGI,HS 578T breast,1290 nM
same,GI50,HT29 colon,336 nM
same,TGI,HT29 colon,1430 nM
same,GI50,IGROV1 ovarian,258 nM
same,TGI,IGROV1 ovarian,830 nM
same,GI50,K-562 leukemia,156 nM
same,TGI,K-562 leukemia,10700 nM
same,GI50,KM12 colon,376 nM
same,TGI,KM12 colon,1750 nM
same,GI50,LOX IMVI melanoma,174 nM
same,TGI,LOX IMVI melanoma,388 nM
same,GI50,M14 melanoma,307 nM
same,TGI,M14 melanoma,1280 nM
same,GI50,MALME-3M melanoma,240 nM
same,TGI,MALME-3M melanoma,808 nM
same,GI50,MCF7 breast,228 nM
same,TGI,MCF7 breast,1220 nM
same,GI50,MDA-MB-231 breast,323 nM
same,TGI,MDA-MB-231 breast,1260 nM
same,GI50,MDA-MB-435,126 nM
same,TGI,MDA-MB-435,381 nM
same,GI50,MOLT-4 leukemia,288 nM
same,TGI,MOLT-4 leukemia,1020 nM
same,GI50,NCI-H226 lung,562 nM
same,TGI,NCI-H226 lung,1960 nM
same,GI50,NCI-H23 lung,411 nM
same,TGI,NCI-H23 lung,1570 nM
same,GI50,NCI-H460 lung,343 nM
same,TGI,NCI-H460 lung,1130 nM
same,GI50,NCI-H522 lung,349 nM
same,TGI,NCI-H522 lung,1760 nM
same,GI50,NCI/ADR-RES ovarian,22200 nM
same,TGI,NCI/ADR-RES ovarian,> 100000 nM
same,GI50,OVCAR-3 ovarian,315 nM
same,TGI,OVCAR-3 ovarian,1100 nM
same,GI50,OVCAR-4 ovarian,565 nM
same,TGI,OVCAR-4 ovarian,1830 nM
same,GI50,OVCAR-5 ovarian,446 nM
same,TGI,OVCAR-5 ovarian,1710 nM
same,GI50,OVCAR-8 ovarian,449 nM
same,TGI,OVCAR-8 ovarian,3100 nM
same,GI50,PC-3 prostate,226 nM
same,TGI,PC-3 prostate,790 nM
same,GI50,RPMI-8226 leukemia,303 nM
same,TGI,RPMI-8226 leukemia,1100 nM
same,GI50,RXF 393 renal,247 nM
same,TGI,RXF 393 renal,741 nM
same,GI50,SF-268 CNS,1070 nM
same,TGI,SF-268 CNS,4830 nM
same,GI50,SF-295 CNS,271 nM
same,TGI,SF-295 CNS,752 nM
same,GI50,SF-539 CNS,226 nM
same,TGI,SF-539 CNS,655 nM
same,GI50,SK-MEL-2 melanoma,1140 nM
same,TGI,SK-MEL-2 melanoma,2980 nM
same,GI50,SK-MEL-28 melanoma,559 nM
same,TGI,SK-MEL-28 melanoma,1710 nM
same,GI50,SK-MEL-5 melanoma,381 nM
same,TGI,SK-MEL-5 melanoma,1400 nM
same,GI50,SK-OV-3 ovarian,1760 nM
same,TGI,SK-OV-3 ovarian,3890 nM
same,GI50,SN12C renal,415 nM
same,TGI,SN12C renal,1660 nM
same,GI50,SNB-19 CNS,381 nM
same,TGI,SNB-19 CNS,1900 nM
same,GI50,SNB-75 CNS,224 nM
same,TGI,SNB-75 CNS,806 nM
same,GI50,SR leukemia,96.3 nM
same,TGI,SR leukemia,962 nM
same,GI50,SW-620 colon,345 nM
same,TGI,SW-620 colon,1510 nM
same,GI50,T-47D breast,535 nM
same,TGI,T-47D breast,2400 nM
same,GI50,TK-10 renal,1920 nM
same,TGI,TK-10 renal,5460 nM
same,GI50,U251 CNS,290 nM
same,TGI,U251 CNS,1020 nM
same,GI50,UACC-257 melanoma,1330 nM
same,TGI,UACC-257 melanoma,3490 nM
same,GI50,UACC-62 melanoma,317 nM
same,TGI,UACC-62 melanoma,1570 nM
same,GI50,UO-31 renal,1610 nM
same,TGI,UO-31 renal,5450 nM
